Measured values reported in patent US8557998B2, “Benzylpiperizine compound” (Dainippon Sumitomo Pharma Co., Ltd, priority 2008, dated 2013).

Columns and labels:
[1] = target: T1, human serotonin transporter (h-SERT) (Homo sapiens, UniProt P31645); experiment: Screening test using [3H]citalopram binding for evaluating human serotonin reuptake inhibitory effect; conditions: h-SERT/CHO membrane preparation, [3H]citalopram approximately 2 nM, room temperature 60 minutes; read-out: Test Example 1: h-SERT binding inhibition constant (Ki)
T1 construct: expressed in transfected cells; host or cells: CHO cells (h-SERT/CHO), Geneticin-selected
Text: CHO cells containing a human serotonin transporter (h-SERT) expressed therein (h-SERT/CHO) were used in the experiment.
1-2 Receptor Binding Experiment
A smaller value of the h-SERT binding inhibition constant Ki means a higher human serotonin reuptake inhibitory effect.

CYP2D6 [2] = target: T2, CYP2D6 (Homo sapiens, UniProt P10635); experiment: CYP2D6 inhibition screening test; type: in vitro ADME; conditions: pooled human liver microsomes, substrate bufuralol, 37° C. 10 min, 1'-hydroxybufuralol by LC-MSMS; read-out: Test Example 3: CYP2D6 Inhibition IC50
T2 construct: Pooled of Human Liver Microsomes was purchased from Xenotech, LLC; tissue Xenotech, LLC; host or cells: pooled human liver microsomes
Protocol: CYP2D6 Inhibition Screening Test
Bufuralol was purchased from Sigma-Aldrich Corp., and Pooled of Human Liver Microsomes was purchased from Xenotech, LLC.
150 μL of Pooled Human Liver Microsomes (20 mg/ml), 12 mL of a 0.5 M potassium phosphate buffer, 1.2 mL of a 165 mM magnesium chloride solution, and 34.65 mL of distilled water were mixed.
Bufuralol was dissolved at a concentration of 2.0 mM in DMSO and then diluted 200-fold with distilled water.
3-3 Experimental Procedures
1. A 10 mM DMSO solution of a test drug was serially diluted 5-fold with DMSO for 4 serial dilutions to prepare 10, 2, 0.4, and 0.08 mM DMSO solutions.
2. Each test drug solution of the step 1. and DMSO were separately diluted 96-fold with a human liver microsome solution, and each dilution was dispensed and 80 μL of each dilution to microplates.
3. 10 μL of a substrate solution and 10 μL of a β-NADPH solution were added to the well of the step 2., followed by incubation at 37° C. for 10 min.
4. The reaction was terminated by the addition of 300 μL of methanol.
5. The reaction mixture was filtered, and LC-MSMS analysis was conducted.
3-4 Quantification and Calculation
The amount of 1′-hydroxybufuralol produced was quantified by LC-MSMS, and this amount was used as a metabolic activity of CYP2D6 for each well. The remaining activity of each sample was determined by comparison with the activity obtained from DMSO as a test drug. An IC50 value of CYP2D6 inhibition was determined from the test drug concentration and remaining activity. The IC50 value was calculated by linear interpolation between two points that span the remaining activity 50%. A larger value of IC50 of CYP2D6 inhibition means weaker CYP2D6 inhibition.

CYP2D6 [3] = target: T2, CYP2D6; experiment: Screening test of the rate of CYP2D6 contribution in human liver microsomal metabolism; type: in vitro ADME; set-up: key to Rate of CYP2D6 Contribution indeterminable due to high stability for human microsomal metabolism: —*^): The rate of CYP2D6 contribution was indeterminable in the present test due to high stability for human microsomal metabolism; conditions: 1 mg/mL human liver microsomes, 1 μM test substance, 37° C.; for Test Example 4: Rate of CYP2D6 Contribution: with/without quinidine 4 μM
Protocol: Screening Test of the Rate of CYP2D6 Contribution in Human Liver Microsomal Metabolism
0.2 mL of a 50 mM potassium phosphate buffer solution (pH 7.4) containing NADPH (final concentration: 3 mM, manufactured by Oriental Yeast Co., Ltd.), 1 mg/mL human liver microsomes (manufactured by XENOTECH, LLC), and a 1 μM test substance was heated on a water bath at 37° C. for metabolic reaction. After the reaction for 15 minutes or 30 minutes, methanol was added in a volume 3 times that of the reaction solution, and the mixture was stirred to terminate the reaction. This reaction solution was centrifuged for protein precipitation. Then, the supernatant was collected and subjected to LC-MS/MS analysis. The results were analyzed as follows:
The test substance was quantified, and time-dependent change in the amount of the substance remaining was logarithmically plotted. A metabolic rate was calculated from the slope.
The ratio of the metabolic rate obtained by the addition of quinidine (final concentration: 4 μM) to the reaction solution to the metabolic rate obtained without the addition was used as the rate of contribution of enzymes other than CYP2D6, and the rate of contribution obtained by subtracting this rate of contribution of other enzymes from the total was used as the rate of CYP2D6 contribution. Specifically, it was calculated according to the equation: Rate of contribution(%)={1−(metabolic rate [with quinidine]/metabolic rate[without quinidine])}×100. A smaller value of the rate of CYP2D6 contribution means smaller CYP2D6 contribution.

[4] = target: T1, human serotonin transporter (h-SERT); experiment: Serotonin transporter function inhibition test using [3H]5-HT; type: cell-based; conditions: h-SERT/CHO cells, [3H]5-HT uptake approximately 10 nM, 37° C. 10 minutes; read-out: Test Example 5: h-SERT Function Inhibition Constant (Ki)
Protocol: 1-1 Cells Used and Preparation of Cell Suspension
CHO cells containing a human serotonin transporter (h-SERT) expressed therein (h-SERT/CHO) were used in the experiment. […] The collected cells were suspended in a buffer solution containing 0.1 mM CaCl2 and 1 mM MgCl2 in PBS (hereinafter, referred to as PBSCM) and stored in ice until use.
Specifically, 149 μl of the cell suspension (10×10^4 cells/well) and 1 μl of a solution of a test drug dissolved in dimethyl sulfoxide were preincubated at 37° C. for 10 minutes.

[5] = target: T3, human serotonin 1A receptor (h-5-HT1A) (Homo sapiens, UniProt P08908)
T3 sequence (P08908 1-422): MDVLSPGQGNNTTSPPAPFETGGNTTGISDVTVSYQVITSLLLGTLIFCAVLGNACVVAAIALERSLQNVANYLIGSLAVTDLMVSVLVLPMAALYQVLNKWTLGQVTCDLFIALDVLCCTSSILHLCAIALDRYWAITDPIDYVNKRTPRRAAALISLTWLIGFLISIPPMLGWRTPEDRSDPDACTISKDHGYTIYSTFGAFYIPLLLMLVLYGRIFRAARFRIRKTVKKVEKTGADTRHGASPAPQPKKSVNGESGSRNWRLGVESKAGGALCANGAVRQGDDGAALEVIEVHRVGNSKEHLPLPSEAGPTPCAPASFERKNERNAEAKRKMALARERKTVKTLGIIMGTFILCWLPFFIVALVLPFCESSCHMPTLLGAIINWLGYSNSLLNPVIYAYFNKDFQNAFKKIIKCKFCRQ
Protocol: The cells were cultured in F12 containing 10% FCS, 500 μg/ml Geneticin, and 100 U/ml penicillin-100 μg/ml streptomycin (all manufactured by Sigma-Aldrich Corp.) in a 5% CO2 incubator. […] Specifically, the cells were dissociated/collected using 50 mM Tris-HCl (pH=7.4). The resulting cells were homogenized using a Teflon (registered trademark) homogenizer and then centrifuged (48,000×g, 20 min, 4° C.). The pellet was resuspended in an appropriate amount of 50 mM Tris-HCl (pH=7.4) and stored at −80° C. until use. The amount of the protein in the membrane preparation was quantified using Dye Reagent Concentrate (manufactured by Bio-Rad Laboratories, Inc.) with bovine serum albumin (manufactured by Sigma-Aldrich Corp.) as a standard.
The reaction solution was reacted at room temperature for 30 minutes and then rapidly filtered by suction at a low pressure through glass fiber filter paper. The glass fiber filter paper was washed twice with 250 μl of 50 mM Tris-HCl (pH=7.4) and then added to a counting vial containing 4 ml of ACS-II (manufactured by Amersham Biosciences). Receptor binding radioactivity remaining on the filter paper was measured using a liquid scintillation counter.

T1 sequence (P31645 whole entry): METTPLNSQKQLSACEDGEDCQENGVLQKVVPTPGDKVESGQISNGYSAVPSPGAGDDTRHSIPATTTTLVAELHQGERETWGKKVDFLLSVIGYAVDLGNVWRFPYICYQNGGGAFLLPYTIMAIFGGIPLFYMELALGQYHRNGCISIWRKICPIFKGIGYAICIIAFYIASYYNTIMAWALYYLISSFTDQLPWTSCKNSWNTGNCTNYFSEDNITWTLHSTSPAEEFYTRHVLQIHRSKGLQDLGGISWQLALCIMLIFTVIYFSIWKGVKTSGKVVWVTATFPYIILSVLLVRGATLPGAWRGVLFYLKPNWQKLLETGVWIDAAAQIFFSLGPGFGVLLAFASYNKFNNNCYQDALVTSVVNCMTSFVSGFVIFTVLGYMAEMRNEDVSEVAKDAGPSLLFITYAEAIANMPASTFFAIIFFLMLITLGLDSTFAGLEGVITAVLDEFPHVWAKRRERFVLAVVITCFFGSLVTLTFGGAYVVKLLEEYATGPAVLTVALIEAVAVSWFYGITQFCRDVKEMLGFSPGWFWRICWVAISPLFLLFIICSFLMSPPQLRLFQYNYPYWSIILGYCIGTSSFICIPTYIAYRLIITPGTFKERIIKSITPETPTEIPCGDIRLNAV
T2 sequence (P10635 whole entry): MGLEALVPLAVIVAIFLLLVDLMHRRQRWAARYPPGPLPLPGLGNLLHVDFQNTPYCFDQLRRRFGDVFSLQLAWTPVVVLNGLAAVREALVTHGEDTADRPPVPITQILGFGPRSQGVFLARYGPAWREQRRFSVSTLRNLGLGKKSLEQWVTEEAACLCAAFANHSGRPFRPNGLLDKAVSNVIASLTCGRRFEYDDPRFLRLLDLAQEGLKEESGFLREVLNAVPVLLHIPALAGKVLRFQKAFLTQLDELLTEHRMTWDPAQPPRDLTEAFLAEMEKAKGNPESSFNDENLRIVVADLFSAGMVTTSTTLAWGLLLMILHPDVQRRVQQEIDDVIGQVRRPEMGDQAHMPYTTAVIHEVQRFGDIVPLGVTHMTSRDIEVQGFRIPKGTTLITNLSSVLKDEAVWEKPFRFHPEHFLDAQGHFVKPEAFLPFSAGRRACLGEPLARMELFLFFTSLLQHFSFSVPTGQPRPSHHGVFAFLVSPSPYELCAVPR

Ki [1] [µM]	IC50 (CYP2D6 [2]) [µM]	Test Example 4: Rate of CYP2D6 Contribution (CYP2D6 [3]) [%]	Ki [4] [µM]	Ki [5] [µM]	Rate of CYP2D6 Contribution indeterminable due to high stability for human microsomal metabolism (CYP2D6 [3])	Structure (SMILES)
0.004	24.6	14	0.018	–	–	COCCOc1cc(Br)cc(CC2CCN(CCc3ccc4c(c3)C(=O)CCO4)CC2)c1 [Example 17]
0.0027	17.5	54	0.016	–	–	COCCOc1cc(CC2CCN(CCc3ccc4c(c3)C(=O)CCO4)CC2)ccc1Cl [Example 7, 6-(2-{4-[4-Chloro-3-(2-methoxyethoxy)benzyl]piperidin-1-yl}ethyl)-2,3-dihydro-4H-chromen-4-one]
0.0074	26.9	–	0.051	0.0086	—*^)	O=C1CCOc2ccc(CCN3CCC(Cc4ccc(Br)c(OCCO)c4)CC3)cc21 [Example 13, 6-(2-{4-[4-Bromo-3-(2-hydroxyethoxy)benzyl]piperidin-1-yl}ethyl)-2,3-dihydro-4H-chromen-4-one]
0.0042	21.5	49	0.044	–	–	COCCOc1cc(CC2CCN(CCc3ccc4c(c3)C(=O)CCO4)CC2)ccc1C [Example 10]
–	22.9	0	–	–	–	COCCOc1cc(CC2CCN(CCc3ccc4c(c3)C(=O)CCO4)CC2)ccc1Br.Cl [Example 4, 6-(2-{4-[4-Bromo-3-(2-methoxyethoxy)benzyl]piperidin-1-yl}ethyl)-2,3-dihydro-4H-chromen-4-one hydrochloride]
0.0085	34.8	–	–	0.055	—*^)	O=C1CCCOc2ccc(CCN3CCC(Cc4ccc(Br)c(OCCO)c4)CC3)cc21 [Example 14, 7-(2-{4-[4-Bromo-3-(2-hydroxyethoxy)benzyl]piperidin-1-yl}ethyl)-3,4-dihydro-1-benzoxepin-5(2H)-one]
0.0062	27.5	0	–	0.295	–	COCCOc1cc(Br)cc(CC2CCN(CCc3ccc4c(c3)C(=O)CCCO4)CC2)c1 [Example 18, 7-(2-{4-[3-Bromo-5-(2-methoxyethoxy)benzyl]piperidin-1-yl}ethyl)-3,4-dihydro-1-benzoxepin-5(2H)-one]
0.0024	23.4	24	–	0.057	–	COCCOc1cc(Cl)cc(CC2CCN(CCc3ccc4c(c3)C(=O)CCO4)CC2)c1 [Example 20, 6-(2-{4-[3-Chloro-5-(2-methoxyethoxy)benzyl]piperidin-1-yl}ethyl)-2,3-dihydro-4H-chromen-4-one]
0.0012	24.7	4.2	0.0016	–	–	COCCOc1cc(CC2CCN(CCc3ccc4c(c3)C(=O)CCCO4)CC2)ccc1Br [Example 6, 7-(2-{4-[4-Bromo-3-(2-methoxyethoxy)benzyl]piperidin-1-yl}ethyl)-3,4-dihydro-1-benzoxepin-5(2H)-one]

Continued, molecule first:

Structure (SMILES)	Ki [1] [µM]	IC50 (CYP2D6 [2]) [µM]	Test Example 4: Rate of CYP2D6 Contribution (CYP2D6 [3]) [%]	Ki [4] [µM]	Ki [5] [µM]	Rate of CYP2D6 Contribution indeterminable due to high stability for human microsomal metabolism (CYP2D6 [3])
COCCOc1cc(CC2CCN(CCc3ccc4c(c3)C(=O)CC4)CC2)ccc1C [Example 8, 6-(2-{4-[3-(2-Methoxyethoxy)-4-methylbenzyl]piperidin-1-yl}ethyl)-2,3-dihydro-1H-inden-1-one]	0.0028	31	9.6	–	0.0037	–
O=C1CCc2ccc(CCN3CCC(Cc4ccc(Br)c(OCCO)c4)CC3)cc21 [Example 11, 6-(2-{4-[4-Bromo-3-(2-hydroxyethoxy)benzyl]piperidin-1-yl}ethyl)-2,3-dihydro-1H-inden-1-one]	0.0064	24.6	–	–	0.0038	—*^)
O=C1CCCc2ccc(CCN3CCC(Cc4ccc(Br)c(OCCO)c4)CC3)cc21 [Example 12, 7-(2-{4-[4-Bromo-3-(2-hydroxyethoxy)benzyl]piperidin-1-yl}ethyl)-3,4-dihydronaphthalen-1(2H)-one]	0.0092	27.9	17	–	0.023	–
COCCOc1cc(CC2CCN(CCc3ccc4c(c3)C(=O)CCC4)CC2)ccc1Br [Example 2, 7-(2-{4-[4-Bromo-3-(2-methoxyethoxy)benzyl]piperidin-1-yl}ethyl)-3,4-dihydronaphthalen-1(2H)-one]	0.0007	12.8	12	0.0016	–	–
COCCOc1cc(Br)cc(CC2CCN(CCc3ccc4c(c3)C(=O)CCC4)CC2)c1 [Example 16, 7-(2-{4-[3-Bromo-5-(2-methoxyethoxy)benzyl]piperidin-1-yl}ethyl)-3,4-dihydronaphthalen-1(2H)-one]	0.0029	26.3	9.2	–	0.027	–
COCCOc1cc(CC2CCN(CCc3ccc4c(c3)C(=O)CCC4)CC2)ccc1C [Example 9, 7-(2-{4-[3-(2-Methoxyethoxy)-4-methylbenzyl]piperidin-1-yl}ethyl)-3,4-dihydronaphthalen-1(2H)-one]	0.0031	33.7	7.8	–	0.013	–
COCCOc1cc(Cl)cc(CC2CCN(CCc3ccc4c(c3)C(=O)CC4)CC2)c1 [Example 19, 6-(2-{4-[3-Chloro-5-(2-methoxyethoxy)benzyl]piperidin-1-yl}ethyl)-2,3-dihydro-1H-inden-1-one]	0.003	20.4	16	–	0.029	–
COCCOc1cc(Br)cc(CC2CCN(CCc3ccc4c(c3)C(=O)CC4)CC2)c1 [Example 15, 6-(2-{4-[3-Bromo-5-(2-methoxyethoxy)benzyl]piperidin-1-yl}ethyl)-2,3-dihydro-1H-inden-1-one]	0.0032	36.1	11	–	0.035	–
